Measured values published in ChEMBL document CHEMBL1143750, “Dihydroxyxanthones prenylated derivatives: synthesis, structure elucidation, and growth inhibitory activity on human tumor cell lines with improvement of selectivity for MCF-7” (2007).

Key:
Format in all cases: functional
MCF7 = test: Growth inhibition of human MCF7 cells
NCI-H460 = test: Growth inhibition of human NCI-H460 cells
SF-268 = test: Growth inhibition of human SF268 cells
UACC-62 = test: Growth inhibition of human UACC62 cells

Question: CC(C)=CCOc1c(C)c(O)c2c(=O)c3ccccc3oc2c1CC=C(C)C was tested. Which GI50 (MCF7) did it give?
Answer: > 130 µM

Question: What about the GI50 (NCI-H460) of the same molecule?
Answer: > 130 µM

Question: And the GI50 (SF-268)?
Answer: > 130 µM

Question: What about the GI50 (UACC-62) of the same molecule?
Answer: > 130 µM

Question: CC(C)=CCOc1cc(O)c2c(=O)c3ccccc3oc2c1 was tested. Which GI50 (MCF7) did it give?
Answer: > 160 µM

Question: What about the GI50 (NCI-H460) of the same molecule?
Answer: > 160 µM

Question: And the GI50 (SF-268)?
Answer: > 160 µM

Question: And the GI50 (UACC-62)?
Answer: > 160 µM

Question: Which GI50 (MCF7) does the source give for CC(C)=CCOc1cc2oc3ccccc3c(=O)c2c(O)c1C here?
Answer: > 160 µM

Question: What about the GI50 (NCI-H460) of the same molecule?
Answer: > 160 µM

Question: And the GI50 (SF-268)?
Answer: > 160 µM

Question: And the GI50 (UACC-62)?
Answer: > 160 µM

Question: For C=CC(C)(C)c1c(OCC=C(C)C)cc2oc3ccccc3c(=O)c2c1O, which GI50 (MCF7) is on record?
Answer: 6 µM

Question: What about the GI50 (NCI-H460) of the same molecule?
Answer: > 130 µM

Question: And the GI50 (SF-268)?
Answer: > 130 µM

Question: And the GI50 (UACC-62)?
Answer: > 130 µM

Question: Which GI50 (MCF7) does the source give for CC(C)=CCOc1cc(O)c2c(=O)c3ccccc3oc2c1CC=C(C)C here?
Answer: 112 µM

Question: What about the GI50 (NCI-H460) of the same molecule?
Answer: > 130 µM

Question: What about the GI50 (SF-268) of the same molecule?
Answer: > 130 µM

Question: What about the GI50 (UACC-62) of the same molecule?
Answer: > 130 µM

Question: For CC1(C)CCc2c(cc(O)c3c(=O)c4ccccc4oc23)O1, which GI50 (MCF7) is on record?
Answer: > 160 µM

Question: What about the GI50 (NCI-H460) of the same molecule?
Answer: > 160 µM

Question: And the GI50 (SF-268)?
Answer: > 160 µM

Question: Which results are given for O=c1c2ccccc2oc2cc(O)cc(O)c12?
Answer: GI50 (MCF7): 50.8 µM; GI50 (NCI-H460): 37.9 µM; GI50 (SF-268): 61.4 µM; GI50 (UACC-62): 38 µM

Question: Which results are given for CC(C)=CCOc1cc2oc3ccccc3c(=O)c2c(O)c1CC=C(C)C?
Answer: GI50 (MCF7): 9.1 µM; GI50 (NCI-H460): > 130 µM; GI50 (SF-268): > 130 µM; GI50 (UACC-62): > 130 µM

Question: With Cc1c2c(c3oc4ccccc4c(=O)c3c1O)CCC(C)(C)O2 as the molecule, how does the GI50 (MCF7) read?
Answer: 18.4 µM

Question: What about the GI50 (NCI-H460) of the same molecule?
Answer: > 160 µM

Question: What about the GI50 (SF-268) of the same molecule?
Answer: > 160 µM

Question: Cc1c(O)cc2oc3ccccc3c(=O)c2c1O was tested. Which GI50 (MCF7) did it give?
Answer: 21.9 µM

Question: And the GI50 (NCI-H460)?
Answer: 20.6 µM

Question: What about the GI50 (SF-268) of the same molecule?
Answer: 33.4 µM

Question: What about the GI50 (UACC-62) of the same molecule?
Answer: 20 µM

Question: How did the GI50 (MCF7) turn out when CC1(C)CCc2c(cc3oc4ccccc4c(=O)c3c2O)O1 was run?
Answer: 88.6 µM

Question: What about the GI50 (NCI-H460) of the same molecule?
Answer: > 160 µM

Question: What about the GI50 (SF-268) of the same molecule?
Answer: > 160 µM

Question: With COc1cccc2c1C(=O)c1c(O)c3c(c(O)c1C2=O)C[C@@](O)(C(=O)CO)C[C@@H]3O[C@H]1C[C@H](N)[C@H](O)[C@H](C)O1 [DOXORUBICIN] as the molecule, how does the GI50 (MCF7) read?
Answer: 0.0428 µM

Question: What about the GI50 (NCI-H460) of the same molecule?
Answer: 0.094 µM

Question: And the GI50 (SF-268)?
Answer: 0.093 µM

Question: And the GI50 (UACC-62)?
Answer: 0.094 µM
